Test [1] has as its target T1, PAR2 (HT-29 cells, SLIGKV activation) (Homo sapiens, UniProt P55085).
T1 construct: host or cells: HT-29 cells
T1 sequence (P55085 26-397): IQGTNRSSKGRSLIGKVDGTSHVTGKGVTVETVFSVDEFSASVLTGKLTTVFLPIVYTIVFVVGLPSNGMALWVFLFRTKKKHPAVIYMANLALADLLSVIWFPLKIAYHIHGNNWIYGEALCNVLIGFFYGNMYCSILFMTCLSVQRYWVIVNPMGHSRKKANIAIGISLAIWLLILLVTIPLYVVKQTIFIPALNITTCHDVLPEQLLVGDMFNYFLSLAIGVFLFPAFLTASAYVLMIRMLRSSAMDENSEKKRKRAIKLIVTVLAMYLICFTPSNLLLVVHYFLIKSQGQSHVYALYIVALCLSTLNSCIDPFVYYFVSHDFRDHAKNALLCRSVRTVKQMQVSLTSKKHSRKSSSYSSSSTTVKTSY
The test is described as follows: Ca FLIPR TETRA assay, ANTAGONIST mode, stimulation with 8 μM SLIGKV. It counts as cell-based. The settings on record: HT-29 cells, antagonist mode, stimulation with 8 μM SLIGKV. In a few lines: (§1)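 HT-29 cells grown overnight in 1% FBS McCoy's medium were loaded with calcium 5 dye (45 min 37 °C, 15 min r.t.). Compounds were added and Ca2+ read for direct activation, then after 30 min at r.t. cells were stimulated with 8 μM SLIGKV, 1 U/mL thrombin, 3.1 U/mL trypsin or 0.6 μM UTP (final).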

Test [2] addresses T2, PAR2 (HT-29 cells, trypsin activation) (Homo sapiens, UniProt P55085).
T2 construct: host or cells: HT-29 cells
T2 sequence (P55085 26-397): T1 sequence (P55085 26-397)
The test is described as follows: Ca FLIPR TETRA assay, ANTAGONIST mode, stimulation with 3.1 U/mL trypsin. It counts as cell-based. As to conditions: HT-29 cells, antagonist mode, stimulation with 3.1 U/mL trypsin. The method, boiled down:
as §1

For orientation: IC50 means the concentration that inhibits the measured activity by half. On to `Cc1nc(C(=O)N2CCN(C(=O)c3cn4nc(-c5ccc(F)cc5)cc(C(C)(C)C)c4n3)C(C)(C)C2)n[nH]1` [Compound I-343, (8-(tert-butyl)-6-(4-fluorophenyl)imidazo[1,2-b]pyridazin-2-yl)(2,2-dimethyl-4-(5-methyl-1H-1,2,4-triazole-3-carbonyl)piperazin-1-yl)methanone], for which the IC50 in test [1] stood at 500 pM; in test [2], 800 pM.
